Experimental data as given in PubChem BioAssay (NCI).
Where “and” joins values, the source holds several entries; their conditions need not be identical. Equal entries are not always repeated.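 Test compounds were applied to cells in 96-well plates for 48 hours at 5 doses. GI50 is the concentration that inhibits growth by half. Definition used: TGI = concentration required for complete inhibition of growth.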

Columns and labels:
Test in all cases: inhibition of tumour cell growth, NCI panel, 48 h
SF-539 CNS = tested on: SF-539 CNS
NCI-H460 lung = tested on: NCI-H460 lung
IGROV1 ovarian = tested on: IGROV1 ovarian
HCT-116 colon = tested on: HCT-116 colon
786-0 renal = tested on: 786-0 renal
SR leukemia = tested on: SR leukemia
M14 melanoma = tested on: M14 melanoma
UACC-62 melanoma = tested on: UACC-62 melanoma
MDA-MB-231 breast = tested on: MDA-MB-231 breast
LOX IMVI melanoma = tested on: LOX IMVI melanoma

Row | SMILES | GI50 (SF-539 CNS) | TGI (SF-539 CNS) | GI50 (NCI-H460 lung) | TGI (NCI-H460 lung) | GI50 (IGROV1 ovarian) | TGI (IGROV1 ovarian) | GI50 (HCT-116 colon) | TGI (HCT-116 colon) | GI50 (786-0 renal) | TGI (786-0 renal) | GI50 (SR leukemia) | TGI (SR leukemia) | GI50 (M14 melanoma) | TGI (M14 melanoma) | GI50 (UACC-62 melanoma) | TGI (UACC-62 melanoma) | GI50 (MDA-MB-231 breast) | TGI (MDA-MB-231 breast) | GI50 (LOX IMVI melanoma) | TGI (LOX IMVI melanoma)
1 | CN(C)c1ccc(C(O)C2=CC(=O)c3ccccc3C2=O)cc1 (stereo not given) | 2.6 µM | 6.08 µM | 51.9 µM | > 100 µM | 1.94 µM | 4.52 µM | 17.8 µM | 37 µM | 14.4 µM | 34.6 µM | 1.88 µM | 4.49 µM | 15.4 µM | 29.4 µM | – | – | – | – | – | –
2 | CC(C)OP(=O)(O)c1ncc(-c2ccc(C(F)(F)F)cc2)c(NC2CCCCCC2)n1 | > 100 µM | > 100 µM | > 100 µM | > 100 µM | > 100 µM | > 100 µM | > 100 µM | > 100 µM | > 100 µM | > 100 µM | – | – | > 100 µM | > 100 µM | 49.7 µM | > 100 µM | > 100 µM | > 100 µM | – | –
3 | CCN(c1ccccc1)[C@H]1C(=O)N(c2ccc([N+](=O)[O-])cc2)[C@H]1c1ccc(OC)cc1 | – | > 100 µM | – | > 100 µM | – | > 100 µM | – | > 100 µM | – | > 100 µM | – | > 100 µM | – | – | – | > 100 µM | – | – | – | –
4 | CCn1c(-c2nonc2N)nc2cnc(Oc3cccc(NC(=O)c4ccc(N(C)C)cc4)c3)cc21 | 18.7 µM | > 25 µM | > 25 µM | > 25 µM | 22 µM | > 25 µM | 11.3 µM | > 25 µM | 21.6 µM | > 25 µM | – | – | > 25 µM | > 25 µM | > 25 µM | > 25 µM | > 17 µM | > 25 µM | > 25 µM | > 25 µM
5 | COc1ccc(C)cc1NC(=S)C#N | – | > 100 µM | – | – | – | – | – | > 100 µM | – | > 100 µM | – | – | – | > 100 µM | – | > 100 µM | – | > 100 µM | – | > 100 µM
6 | Cc1cc(C)nc(NS(=O)(=O)c2ccc(Nc3c4ccccc4nc4c(C(=O)NCCN(C)C)cccc34)cc2)n1 | – | 14.9 µM | – | 10.9 µM | – | 16.4 µM | – | 15.5 µM | – | 25.2 µM | – | 43.7 µM | – | 20.4 µM | – | 14.6 µM | – | – | – | 11.7 µM
7 | Cc1cc(Cl)ccc1NC(=O)C1C(=O)N(c2ccc(Cl)cc2C)C(=O)/C1=N\NC(N)=S (stereo not given) | – | 70.6 µM | – | > 100 µM | – | – | – | 46.2 µM | – | > 100 µM | – | – | – | > 100 µM | – | 86.4 µM | – | – | – | –
8 | OCC(O)C(O)C(O)c1nn(-c2ccc(F)cc2)c2nc3cc(Cl)c(Cl)cc3nc12 (stereo not given) | – | 39.2 µM | – | 82.1 µM | – | 63.6 µM | – | > 100 µM | – | 81.9 µM | – | – | – | 91.8 µM | – | 35.9 µM | – | – | – | 76.5 µM
9 | COc1cc(N(C)C)c(OC)cc1C=C1C=CC=C1 | – | > 100 µM | – | > 100 µM | – | > 100 µM | – | > 100 µM | – | > 100 µM | – | > 100 µM | – | > 100 µM | – | > 100 µM | – | > 100 µM | – | –
10 | COc1ccc(-c2cc(/C=C/C(=O)c3ccc(N)cc3)[nH]n2)cc1 | 1.47 µM | 3.48 µM | 2.07 µM | 4.95 µM | 2.27 µM | 6.45 µM | – | – | 2.12 µM | 5.69 µM | 0.799 µM | 6.09 µM | 2.67 µM | 6.54 µM | 1.48 µM | 2.94 µM | 2.14 µM | 8.29 µM | – | –
11 | COc1cc2c(c(OC)c1OC)C(=O)NCCC2 | – | > 100 µM | – | > 100 µM | – | > 100 µM | – | > 100 µM | – | > 100 µM | – | > 100 µM | – | > 100 µM | – | > 100 µM | – | – | – | > 100 µM
12 | C[C@H]1CC[P+](C)(c2ccccc2)C1 (stereo not given in full) | – | > 100 µM | – | > 100 µM | – | > 100 µM | – | > 100 µM | – | > 100 µM | – | > 100 µM | – | > 100 µM | – | > 100 µM | – | – | – | > 100 µM
13 | O=[N+]([O-])/C=C/c1ccc(Cl)cc1[N+](=O)[O-] | 2.65 µM | 5.91 µM | 3.42 µM | 33.5 µM | 2.01 µM | 5.85 µM | 1.86 µM | 3.67 µM | 2.42 µM | 4.62 µM | 1.68 µM | > 100 µM | 4.42 µM | 16.5 µM | 1.55 µM | 3.64 µM | 2.33 µM | 6.46 µM | – | –
14 | O=C(O)CSc1n[nH]c(-c2ccco2)n1 | – | > 100 µM | – | > 100 µM | – | > 100 µM | – | > 100 µM | – | > 100 µM | – | – | – | > 100 µM | – | > 100 µM | – | – | – | > 100 µM
15 | N#CCc1cccc(CC#N)c1Br | – | > 100 µM | – | > 100 µM | – | > 100 µM | – | > 100 µM | – | > 100 µM | – | > 100 µM | – | > 100 µM | – | > 100 µM | – | – | – | > 100 µM
16 | COc1cc(-c2nn(-c3cccc(NC(=O)CCN4CCN(c5ccccc5)CC4)c3)cc2-c2ccncc2)ccc1Cl | 2.53 µM | 18.4 µM | 3.11 µM | 31.3 µM | 4.12 µM | > 100 µM | 2.85 µM | > 100 µM | 1.83 µM | 4.23 µM | – | – | 2.31 µM | 7.01 µM | 2.49 µM | 8.01 µM | 2.28 µM | 7.91 µM | 2.02 µM | 5.47 µM
17 | Cc1ccc2ccc(-c3ccccc3)c3c2c1C(=O)c1ccccc1C3=O | – | > 100 µM | – | – | – | > 100 µM | – | > 100 µM | – | > 100 µM | – | > 100 µM | – | > 100 µM | – | > 100 µM | – | – | – | > 100 µM
18 | COc1ccccc1C(=O)N(Cc1ccccc1)c1ccc(Cl)c(C(=O)OC(C)C)c1 | – | > 100 µM | – | > 100 µM | – | > 100 µM | – | > 100 µM | – | > 100 µM | – | – | – | > 100 µM | – | > 100 µM | – | > 100 µM | – | > 100 µM
19 | Cc1ccc(S(=O)C(C)C(Cl)c2ccccc2)cc1 (stereo not given) | – | > 100 µM | – | > 100 µM | – | > 100 µM | – | > 100 µM | – | > 100 µM | – | > 100 µM | – | > 100 µM | – | > 100 µM | – | – | – | > 100 µM
20 | N#[N+]c1ccc(Nc2ccccc2)cc1 | > 50 µg/mL | > 50 µg/mL | – | – | > 50 µg/mL | > 50 µg/mL | > 50 µg/mL | > 50 µg/mL | > 50 µg/mL | > 50 µg/mL | > 50 µg/mL | > 50 µg/mL | > 50 µg/mL | > 50 µg/mL | > 50 µg/mL | > 50 µg/mL | > 50 µg/mL | > 50 µg/mL | > 50 µg/mL | > 50 µg/mL
21 | CCCCCCCCCCCCCCCC[n+]1ccccc1 | 0.95 µM | 2.35 µM | 0.388 µM and 0.553 µM | 1.5 µM and 1.94 µM | 0.384 µM | 1.9 µM | 0.321 µM | 1.31 µM | 0.548 µM | 1.91 µM | – | – | 0.28 µM | 1.04 µM | 0.565 µM | 2.15 µM | 0.44 µM and 0.805 µM | 1.74 µM and 2.7 µM | 0.242 µM | 1.09 µM
22 | Cn1cnnc1[S-].[Au+].c1ccc([PH+](c2ccccc2)c2ccccc2)cc1 | 1.61 µM | 3 µM | – | – | – | – | 1.72 µM | 3.26 µM | 1.72 µM | 3.15 µM | – | – | 1.4 µM | 2.99 µM | 1.26 µM | 2.55 µM | 1.67 µM | 3.08 µM | 1.35 µM | 2.71 µM
23 | Clc1ccc(CN2CCCN(Cc3ccc(Cl)cc3)C2c2cc3ccccc3c3ccccc23)cc1 | – | > 100 µM | – | – | – | > 100 µM | – | > 100 µM | – | > 100 µM | – | > 100 µM | – | 34.2 µM | – | 36.7 µM | – | > 100 µM | – | > 100 µM
24 | CCc1ccc2c(c1)N(CCO)C1=C(C(=O)OC1)C2c1cc(OC)c(OC)c(OC)c1 (stereo not given) | – | – | 0.178 µM | 7.62 µM | 0.376 µM | > 50 µM | 0.188 µM | 1.77 µM | 0.245 µM | > 14.5 µM | 0.187 µM | > 50 µM | – | – | 0.182 µM | > 50 µM | – | – | 0.318 µM | > 50 µM
25 | O=C1OC(=O)C([Se]c2ccccc2)=C1[Se]c1ccccc1 | – | > 100 µM | – | > 100 µM | – | > 100 µM | – | > 100 µM | – | > 100 µM | – | > 100 µM | – | > 100 µM | – | > 100 µM | – | – | – | > 100 µM
26 | COc1cccc(/C=N\NC(=O)C(C)SC(C)C(=O)N/N=C/c2cccc(OC)c2)c1 (stereo not given) | – | > 100 µM | – | 23.2 µM | – | 41.7 µM | – | 34.7 µM | – | 31.6 µM | – | > 100 µM | – | > 100 µM | – | 97.4 µM | – | – | – | –
27 | O=C(/C=C/c1ccccc1O)c1ccccc1Cl | – | > 100 µM | – | > 100 µM | – | > 100 µM | – | > 100 µM | – | > 100 µM | – | 76.5 µM | – | > 100 µM | – | > 100 µM | – | – | – | 73.6 µM
28 | CC1(C)OC(=O)C(=C2CCC(C(=O)Nc3cccc(C(F)(F)F)c3)N2)C(=O)O1 (stereo not given) | – | > 100 µM | – | > 100 µM | – | > 100 µM | – | > 100 µM | – | > 100 µM | – | – | – | > 100 µM | – | > 100 µM | – | – | – | > 100 µM
29 | O=C1C(=O)C2(CC1S(=O)(=O)c1ccccc1)c1ccccc1-c1ccccc12 (stereo not given) | – | – | – | 36.2 µM | – | 47.9 µM | – | 31.9 µM | – | 82.5 µM | – | 50 µM | – | 28.4 µM | – | 31.9 µM | – | – | – | 34.5 µM
30 | O=C1CCC(=O)N1Sc1ccccc1 | – | > 100 µM | – | > 100 µM | – | > 100 µM | – | > 100 µM | – | > 100 µM | – | – | – | > 100 µM | – | > 100 µM | – | – | – | > 100 µM
